Active and inactive are the calls of the source.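 The calls were made as follows: active = IC50 below 20 µM; inactive = the rest.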
Each compound was assayed against Apelin receptor (Homo sapiens) (UniProt P35414) (assay: APJ receptor antagonists, beta-arrestin recruitment, SAR follow-up, cell-based, CHO-K1 AGTRL-1, PathHunter luminescence, set 4 (AID 492986)). Conditions: CHO-K1 AGTRL-1 beta-arrestin.
Apelin receptor (Homo sapiens), sequence (P35414 whole entry, looked up): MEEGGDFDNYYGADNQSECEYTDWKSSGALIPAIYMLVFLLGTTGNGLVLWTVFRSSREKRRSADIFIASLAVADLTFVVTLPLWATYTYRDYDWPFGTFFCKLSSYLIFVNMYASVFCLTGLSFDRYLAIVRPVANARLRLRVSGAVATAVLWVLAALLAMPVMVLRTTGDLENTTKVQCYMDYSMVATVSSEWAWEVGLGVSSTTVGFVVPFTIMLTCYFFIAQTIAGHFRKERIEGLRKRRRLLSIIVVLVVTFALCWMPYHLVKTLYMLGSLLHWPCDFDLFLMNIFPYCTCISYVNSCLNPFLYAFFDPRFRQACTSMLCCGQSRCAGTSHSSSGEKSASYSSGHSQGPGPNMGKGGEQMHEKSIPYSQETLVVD

IC50, inactive:
Cc1cc(C)nc(SCc2cc(=O)c(OS(=O)(=O)c3ccc([N+](=O)[O-])cc3)co2)n1 > 79 µM
Cc1cc(C)nc(SCc2cc(=O)c(OS(=O)(=O)c3ccccc3)co2)n1 > 79 µM
Cc1ccnc(SCc2cc(=O)c(OC(=O)c3cccc(C#N)c3)co2)n1 > 79 µM
Cc1ccnc(SCc2cc(=O)c(NC(=O)c3ccccc3)co2)n1 > 79 µM
O=c1cc(CSc2ccc(F)cc2)occ1O > 79 µM
O=C(Oc1coc(CCl)cc1=O)c1ccc(Cl)c([N+](=O)[O-])c1 > 79 µM

Reference: PubChem BioAssay AID492986 (Sanford-Burnham Center for Chemical Genomics, 2010)
